Results as given in patent US20220387457A1 (Qlaris Bio, Inc., priority 2020, published 2022).
Like-named read-outs stand apart in the source and are kept apart here.

How the values were obtained:
[1] = Concentration of CKLP1 and levcromakalim in ocular and systemic tissues of hound dogs; format: in vivo, hound dog; settings: for concentration at 23 h: hound, dog
Method: After blood collection for pharmacokinetic studies, bilateral ocular treatment with CKLP1 (10 mM) continued in the hound dogs for 4-5 additional days.
For ocular tissue collection, eyes were enucleated and aqueous humor, vitreous humor, trabecular meshwork, optic nerve, ciliary body, iris, retina and cornea were isolated and stored at −80° C. While collecting tissues during necropsy, portions of heart, kidney, lung, brain, liver and skeletal muscle were immediately frozen for pharmacodynamics analysis, while the remaining tissue samples were immediately fixed in 10% neutral buffered formalin.
Immediately prior to analysis, tissues were thawed and their weight was measured. PBS was added at double the tissue volume homogenized in a rotor stator homogenizer for 30 seconds. […] Detection was accomplished using positive electrospray ionization with multiple-reaction monitoring (MRM). […] Data were acquired and analyzed using Waters MassLynx v4.1 software.

[2] = Toxicokinetics after escalating intravenous doses of CKLP1 in beagles; format: in vivo, beagle dog; design: AUCTlast/Dose: unit not given here; settings: for AUC(0-t) / Cmax / RAUC / AUC(0-inf) / C0 / Tlast / Tmax / Vd / clearance / half-life / λZ range: dog, in vivo; for AUCTlast/Dose / Cmax/Dose: female dog
Method: Two beagles (one male and one female) were intravenously injected with escalating doses of CKPL1 (0.05 mg/kg, 0.5 mg/kg, 1.5 mg/kg, 3 mg/kg, and 5 mg/kg) to assess the toxicity of CKLP1. The injection was done through the cephalic vein and CKLP1 was administered in a phosphate buffered saline solution ((0.096% sodium phosphate dibasic, 0.089% sodium dihydrogen orthophosphate monohydrate, 0.83% sodium chloride) pH 6.5±0.1 in sterile water for injection USP). The dosing schedule is shown below in Table 3.
The following parameters and endpoints were evaluated: mortality, clinical observations, body and organ weights, and food consumption. Bioanalytical samples for toxicokinetic parameters (for both CKLP1 and leveromakalim) were collected after each dose level (days 1, 3, 8, 10, and 14) at predose, 1, 3, 6, 8, and 24 hours postdose. Animals were released from the study after completion of the bioanalytical sample collection schedule.
Toxicokinetics (TK) were determined based on the individual exposures for each animal on each sampled study day (days 1, 3, 8, 10, and 14). […] Predose samples had no quantifiable exposure in any animal on any day, with the exception of the female dog on day 10. The predose concentration for the female dog on day 10 was excluded from the TK analysis in order to allow for estimation of the IV C0.

[3] = IV CKLP1 0.05 mg/kg, study day 1
[4] = IV CKLP1 0.5 mg/kg, study day 3
[5] = IV CKLP1 1.5 mg/kg, study day 8

CC1(C)Oc2ccc(C#N)cc2[C@@H](N2CCCC2=O)[C@@H]1OP(=O)(O)O [CKLP1]
concentration in lung ([1]; 23 hours after last dose, topical 10 mM CKLP1 12-13 days): undetected
concentration at 23 h ([1]; aqueous humor, 23 hours after last dose, topical 10 mM CKLP1 12-13 days, two animals, read-out: concentration in aqueous humor): 10.2 ± 14.4 ng/g
concentration at 23 h ([1]; ciliary body, 23 hours after last dose, topical 10 mM CKLP1 12-13 days, two animals, read-out: concentration in ciliary body): 10.3 ± 8.1 ng/g
concentration at 23 h ([1]; cornea, 23 hours after last dose, topical 10 mM CKLP1 12-13 days, two animals, read-out: concentration in cornea): 31.3 ± 10.8 ng/g
concentration at 23 h ([1]; heart, 23 hours after last dose, topical 10 mM CKLP1 12-13 days, read-out: concentration in heart): 3.7 ± 0.5 ng/g
concentration at 23 h ([1]; iris, 23 hours after last dose, topical 10 mM CKLP1 12-13 days, two animals, read-out: concentration in iris): 4.8 ± 1.1 ng/g
concentration at 23 h ([1]; kidney, 23 hours after last dose, topical 10 mM CKLP1 12-13 days, read-out: concentration in kidney): 2.7 ± 2.9 ng/g
concentration at 23 h ([1]; optic nerve, 23 hours after last dose, topical 10 mM CKLP1 once daily 12-13 days, two animals, read-out: concentration in optic nerve): 63.8 ± 63.1 ng/g
concentration at 23 h ([1]; retina, 23 hours after last dose, topical 10 mM CKLP1 12-13 days, two animals, read-out: concentration in retina): 6.2 ± 3.8 ng/g
concentration at 23 h ([1]; trabecular meshwork, 23 hours after last dose, topical 10 mM CKLP1 12-13 days, two animals, read-out: concentration in trabecular meshwork): 170 ± 21.6 ng/g
concentration at 23 h ([1]; vitreous humor, 23 hours after last dose, topical 10 mM CKLP1 12-13 days, two animals, read-out: concentration in vitreous humor): 24.4 ± 2.4 ng/g
concentration in urine ([1]; topical 10 mM CKLP1 12-13 days): 0.088 ± 0.1349 µg/mL
gender differences in AUC values following each dose ([2]; IV CKLP1): less than 2 fold
AUC(0-t) ([2]; both sexes, beagle, CKLP1, IV 3 mg/kg, read-out: AUCTlast at MTD, sex-combined): 107000 ng·h/mL
Cmax ([2]; both sexes, beagle, CKLP1, IV 3 mg/kg, read-out: Cmax at MTD, sex-combined): 16.4 µg/mL
RAUC ([2]; iv, 0.05 mg/kg): LOO
plasma concentrations of CKLP1 relative to levcromakalim ([2]; early time points after IV CKLP1): more than 300 fold
AUCTlast/Dose [2, 3]: 41900
Cmax/Dose [2, 3]: 7.12e+06 µg/mL
AUCTlast/Dose [2, 4]: 41900
Cmax/Dose [2, 4]: 5.98e+06 µg/mL
AUCTlast/Dose [2, 5]: 40800
Cmax/Dose [2, 5]: 6.03e+06 µg/mL
AUCTlast/Dose ([2]; IV CKLP1 3 mg/kg, study day 10): 42800
Cmax/Dose ([2]; IV CKLP1 3 mg/kg, study day 10): 6.13e+06 µg/mL
AUCTlast/Dose ([2]; IV CKLP1 5 mg/kg, study day 14): 62300
Cmax/Dose ([2]; IV CKLP1 5 mg/kg, study day 14): 5.86e+06 µg/mL
AUC(0-inf) ([2]; female, beagle, iv, 0.05 mg/kg): 2110 ng·h/mL
AUC(0-t) ([2]; female, beagle, iv, 0.05 mg/kg): 2100 ng·h/mL
C0 ([2]; female, beagle, iv, 0.05 mg/kg): 0.461 µg/mL
Cmax ([2]; female, beagle, iv, 0.05 mg/kg): 0.356 µg/mL
RAUC ([2]; female, beagle, iv, 0.05 mg/kg): 1.00
Tlast ([2]; female, beagle, iv, 0.05 mg/kg): 24.0 h
Tmax ([2]; female, beagle, iv, 0.05 mg/kg): 1 h
Vd ([2]; female, beagle, iv, 0.05 mg/kg): 0.112 L/kg
clearance ([2]; female, beagle, iv, 0.05 mg/kg): 0.395 mL/min/kg
half-life ([2]; female, beagle, iv, 0.05 mg/kg): 3.26 h
λZ range ([2]; female, beagle, iv, 0.05 mg/kg): 6 to 24 h
AUC(0-inf) ([2]; female, beagle, iv, 0.5 mg/kg): 21200 ng·h/mL
AUC(0-t) ([2]; female, beagle, iv, 0.5 mg/kg): 20900 ng·h/mL
C0 ([2]; female, beagle, iv, 0.5 mg/kg): 3.67 µg/mL
Cmax ([2]; female, beagle, iv, 0.5 mg/kg): 2.99 µg/mL
RAUC ([2]; female, beagle, iv, 0.5 mg/kg): 10.0
Tlast ([2]; female, beagle, iv, 0.5 mg/kg): 24.0 h
Tmax ([2]; female, beagle, iv, 0.5 mg/kg): 1 h
Vd ([2]; female, beagle, iv, 0.5 mg/kg): 0.139 L/kg
clearance ([2]; female, beagle, iv, 0.5 mg/kg): 0.392 mL/min/kg
half-life ([2]; female, beagle, iv, 0.5 mg/kg): 4.11 h
λZ range ([2]; female, beagle, iv, 0.5 mg/kg): 6 to 24 h
AUC(0-inf) ([2]; female, beagle, iv, 1.5 mg/kg): 62500 ng·h/mL
AUC(0-t) ([2]; female, beagle, iv, 1.5 mg/kg): 61200 ng·h/mL
C0 ([2]; female, beagle, iv, 1.5 mg/kg): 11 µg/mL
Cmax ([2]; female, beagle, iv, 1.5 mg/kg): 9.05 µg/mL
RAUC ([2]; female, beagle, iv, 1.5 mg/kg): 29.1
Tlast ([2]; female, beagle, iv, 1.5 mg/kg): 24.0 h
Tmax ([2]; female, beagle, iv, 1.5 mg/kg): 1 h
Vd ([2]; female, beagle, iv, 1.5 mg/kg): 0.162 L/kg
clearance ([2]; female, beagle, iv, 1.5 mg/kg): 0.4 mL/min/kg
half-life ([2]; female, beagle, iv, 1.5 mg/kg): 4.68 h
λZ range ([2]; female, beagle, iv, 1.5 mg/kg): 6 to 24 h
AUC(0-inf) ([2]; female, beagle, iv, 3 mg/kg): 129000 ng·h/mL
AUC(0-t) ([2]; female, beagle, iv, 3 mg/kg): 128000 ng·h/mL
C0 ([2]; female, beagle, iv, 3 mg/kg): 22.7 µg/mL
Cmax ([2]; female, beagle, iv, 3 mg/kg): 18.4 µg/mL
RAUC ([2]; female, beagle, iv, 3 mg/kg): 61.0
Tlast ([2]; female, beagle, iv, 3 mg/kg): 24.0 h
Tmax ([2]; female, beagle, iv, 3 mg/kg): 1 h
Vd ([2]; female, beagle, iv, 3 mg/kg): 0.099 L/kg
clearance ([2]; female, beagle, iv, 3 mg/kg): 0.388 mL/min/kg
half-life ([2]; female, beagle, iv, 3 mg/kg): 2.94 h
λZ range ([2]; female, beagle, iv, 3 mg/kg): 6 to 24 h
AUC(0-inf) ([2]; female, beagle, iv, 5 mg/kg): 330000 ng·h/mL
AUC(0-t) ([2]; female, beagle, iv, 5 mg/kg): 311000 ng·h/mL
